In patent US8084457B2, “Pharmaceutically active 4,6-disubstituted aminopyrimidine derivatives as modulators of protein kinases” (Lead Discovery Center GmbH, priority 2003, dated 2011):

What was measured:
c-Kit = c-Kit (Homo sapiens, UniProt P10721); test: General kinase assay, selectivity panel: c-Kit; assay type: biochemical; conditions: 10 μM of compound, in comparison to DMSO (0% inhibition)
Description: (§1) The inhibitory effect of compounds according to the present invention on the activity of protein kinases, depicted in Table 1, can be measured according to the following protocol:
(§2) Pipettinq Sequence: • 1) Add 10 μl 4 fold concentrated Substrate+4 fold concentrated ATP in 3 fold concentrated Reaction Buffer to each well of Assay Plate • 2) Add 10 μl 4 fold concentrated inhibitor in 4% DMSO in H2O to each well except to C− and C+ wells • 3) Add 10 μl 4% DMSO in H2O to C− and C+ wells • 4) Add 10 μl 500 mM EDTA in H2O to − wells • 5) Add 10 μl 50 μCi/ml Adenosine 5′-[γ-^33P]triphosphate in H2O to each well • 6) Add 10 μl 4 fold concentrated kinase in Reaction Buffer to each well • 7) Incubate 1 hr at room temperature • 8) Add 10 μl 50 mM EDTA in H2O to each well except to C− wells • 9) Prepare MAPH plates by adding 200 μl 0.75% H3PO4 to each well • 10) Exhaust 0.75% H3PO4 using Millipore vacuum station • 11) Add 60 μl 0.75% H3PO4 to each well of MAPH Filter Plate • 12) Transfer 30 μl sample per well from Assay Plate to corresponding well of MAPH Filter Plate • 13) Incubate 30 min at room temperature • 14) Wash each well of MAPH Filter Plates 3× with 200 μl 0.75% H3PO4 using Millipore vacuum station. • 15) Add 20 μl Scintillation Liquid to each well of MAPH Filter Plate • 16) Seal MAPH Filter Plate • 17) Store MAPH Filter Plate 30 min in darkness • 18) Quantify radioactivity
(§3) The activity of these protein kinases is depicted as % inhibition in the presence of 10 μM of compound in comparison to DMSO (0% inhibition).

RSK1 = RSK1 (Homo sapiens, UniProt Q15418); test: General kinase assay, selectivity panel: RSK1; assay type: biochemical; conditions: 10 μM of compound, in comparison to DMSO (0% inhibition)
Description: as §1, §2, §3

PDGFR = test: General kinase assay, selectivity panel: PDGFR; assay type: biochemical; conditions: 10 μM of compound, in comparison to DMSO (0% inhibition)
Description: as §1, §2, §3

EGFR = EGFR (Homo sapiens, UniProt P00533); test: General kinase assay, selectivity panel: EGFR; assay type: biochemical; conditions: 10 μM of compound, in comparison to DMSO (0% inhibition)
Description: as §1, §2, §3

GSK-3β = GSK-3β (Homo sapiens, UniProt P49841); test: General kinase assay, selectivity panel: GSK-3β; assay type: biochemical; conditions: 10 μM of compound, in comparison to DMSO (0% inhibition)
Description: as §1, §2, §3

CDK1 = CDK1 (Homo sapiens, UniProt P06493); test: General kinase assay, selectivity panel: CDK1; assay type: biochemical; conditions: 10 μM of compound, in comparison to DMSO (0% inhibition)
Description: as §1, §2, §3

p56 Lck = p56 Lck (Homo sapiens, UniProt P06239); test: General kinase assay, selectivity panel: p56 Lck; assay type: biochemical; conditions: 10 μM of compound, in comparison to DMSO (0% inhibition)
Description: as §1, §2, §3

Abl = Abl (Homo sapiens, UniProt P00519); test: General kinase assay, selectivity panel: Abl; assay type: biochemical; conditions: 10 μM of compound, in comparison to DMSO (0% inhibition)
Description: as §1, §2, §3

CDK5/p35 = target: T1, CDK5/p35 (Homo sapiens, UniProt Q00535); test: Kinase assay determining CDK5/p35 activity (selectivity panel); assay type: biochemical; conditions: 10 μM of compound, in comparison to DMSO (0% inhibition)
T1 construct: purchased Upsate (Upstate)
Description: Kinase Assays Determining CDK2/CyclinA and CDK5/p35 Activity:
Kinase assays were performed as described by the manufacturers recommendations (Proqinase for CDK2/CyclinA and Upsate for CDK5/p35).
as §3

HCMV strain AD169 = test: HCMV replication assay in HFF cells (EGFP); assay type: cell-based; conditions: strain AD 169 in HFF cells
Description: Human foreskin fibroblasts (HFF) cell culture were grown in DMEM containing 10% FCS. For HCMV-replication assays, HFF cells were infected with HCMV strain AD169 producing EGFP (HCMV AD169-GFP; 27). 1 h post infection, medium was changed with medium containing the indicated compound concentration (0.3 μM, 1 μM and 3 μM, respectively) After incubation of 7 days cells were lysed (in 25 mM Tris, pH 7.5, 2 mM DTT, 1% Triton X-100 and 10% glycerol) and analysed for EGFP content in a Wallac Victor fluorescence detector.

[1] = system: NFκB-dependent transcriptional activity; test: NFκB-dependent transcriptional activity (NIH 3T3 75E 11/300D8 cell line); assay type: cell-based
Description: NFκB-dependent Transcriptional Activity:
The used NIH 3T3 75E 11/300D8 cell line is described elsewhere (J. Eickhoff et al., Journal of Biological Chemistry, 2004, 279(10), 9642-9652).
It is known, that CDK9 regulates the NFκB-dependent transitional activity. With Compound 4, Compound 7 and Compound 30 studies were done, to evaluate their effect on NFκB-dependent transcriptional activity.

cMet = cMet (Homo sapiens, UniProt P08581); test: General kinase assay, selectivity panel: cMet; assay type: biochemical; conditions: 10 μM of compound, in comparison to DMSO (0% inhibition)
Description: as §1, §2, §3

HBV = HBV replication assay in HepG2-2.2.15 cells; assay type: cell-based
Description: To test anti—HBV-activity of compounds the HBV-producing cell line HepG2-2.2.15 (M. A. Sells, PNAS 1987, 84, 1005-1009) was used. 1.0×10^4 cells were seeded in 96-well microtiter plates in DMEM medium supplemented with 10% FCS. After incubation at 37° C. in 5% CO2 atmosphere for 24 hours the medium was replaced with fresh medium containing the appropriately diluted compound. 3 days later medium was replaced by freshly prepared inhibitor-containing medium and the cells were incubated for further 3 days. Subsequently 200 μl lysis buffer (50 mM Tris-Cl 7.5; 1 mM EDTA 8.0; 0.5% NP40) per well was added. To remove cell debris and […], lysate was centrifuged (15000 rpm, 10 min, 4° C.). Cellular and viral RNA was removed by addition of 2 μl of RNase. 100 μl of the samples were spotted onto an uncharged nylon membrane pre-wetted with PBS (phosphate-buffered saline) using a 96 well-blotting chamber (MINIfold Dot-Blot, Schleicher&Schüll). After further washing with 200 μl PBS per well the membrane was treated twice with 0.5 M NaOH, 1.5 M NaCl (2 min) and 4 times with 0.5 M Tris 7.5, 3 M NaCl (1 min). The nucleic acids were fixed by UV-treatment and used for hybridisabon with a radioactive HBV-fragment prepared from the overgenome-length HBV-plasmid pT-HBV1.3 (L. G. Guidotti et al., Journal of Virology 1995., 69(10), 6158-6169).
The fixed membrane was pre-hybridized in a standard hybridisation buffer (50% formamide, 5×SSPE, 10×Denhards, 1% SDS, 100 μg/ml salmon sperm DNA) for at least 3 hours at 42° C. and hybridised overnight against the labelled HBV-fragment. The preparation of the HBV-fragment with the “Random primers DNA labelling system” (Invitrogen) was done according to the manufacturer's instructions. Hybridized filter were washed at room temperature with 2×SSC, at 62° C. with 2×SSC, 0.5% SDS and at 62° C. with 0.5×SSC, 0.5% SDS. Each washing step was carried out twice. The intensity of the HBV-DNA was quantified using a phosphoimager (Fuji). […] Absorbance was monitored at 570 nm and 600 nm wavelength.

CDK4 = CDK4 (Homo sapiens, UniProt P11802); test: CDK4 (activity range), Table 2; no method described; assay type: biochemical

Sequence of EGFR (P00533 25-1210, species assumed): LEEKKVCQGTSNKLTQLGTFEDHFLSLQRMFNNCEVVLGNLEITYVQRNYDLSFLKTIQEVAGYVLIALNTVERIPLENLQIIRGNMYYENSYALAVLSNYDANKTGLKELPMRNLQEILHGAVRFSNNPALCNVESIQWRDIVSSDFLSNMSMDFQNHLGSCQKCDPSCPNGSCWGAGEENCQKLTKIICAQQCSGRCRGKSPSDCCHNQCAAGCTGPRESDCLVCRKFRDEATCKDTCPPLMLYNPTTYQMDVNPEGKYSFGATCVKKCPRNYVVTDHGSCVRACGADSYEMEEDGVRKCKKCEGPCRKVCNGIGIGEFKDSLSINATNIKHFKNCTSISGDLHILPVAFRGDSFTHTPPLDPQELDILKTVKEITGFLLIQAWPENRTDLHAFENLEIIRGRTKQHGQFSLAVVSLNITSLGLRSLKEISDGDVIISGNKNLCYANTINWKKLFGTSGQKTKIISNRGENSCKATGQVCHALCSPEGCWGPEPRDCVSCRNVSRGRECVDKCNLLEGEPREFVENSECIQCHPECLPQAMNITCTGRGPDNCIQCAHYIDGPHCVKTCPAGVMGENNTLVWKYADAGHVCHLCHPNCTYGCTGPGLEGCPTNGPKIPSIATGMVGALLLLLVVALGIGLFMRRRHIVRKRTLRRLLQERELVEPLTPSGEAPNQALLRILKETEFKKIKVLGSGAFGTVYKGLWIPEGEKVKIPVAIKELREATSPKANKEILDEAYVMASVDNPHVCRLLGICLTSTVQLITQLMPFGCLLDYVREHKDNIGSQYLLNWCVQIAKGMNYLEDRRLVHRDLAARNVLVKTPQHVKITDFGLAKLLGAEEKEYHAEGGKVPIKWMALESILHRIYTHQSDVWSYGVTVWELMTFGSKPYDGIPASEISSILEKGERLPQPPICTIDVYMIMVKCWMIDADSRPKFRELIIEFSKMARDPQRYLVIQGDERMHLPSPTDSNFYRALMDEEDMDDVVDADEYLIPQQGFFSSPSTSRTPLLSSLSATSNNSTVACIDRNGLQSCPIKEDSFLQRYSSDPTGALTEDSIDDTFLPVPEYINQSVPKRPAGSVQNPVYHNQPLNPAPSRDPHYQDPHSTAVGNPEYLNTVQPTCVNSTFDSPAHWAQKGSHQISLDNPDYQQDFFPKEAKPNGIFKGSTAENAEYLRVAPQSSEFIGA
Sequence of c-Kit (P10721 26-976): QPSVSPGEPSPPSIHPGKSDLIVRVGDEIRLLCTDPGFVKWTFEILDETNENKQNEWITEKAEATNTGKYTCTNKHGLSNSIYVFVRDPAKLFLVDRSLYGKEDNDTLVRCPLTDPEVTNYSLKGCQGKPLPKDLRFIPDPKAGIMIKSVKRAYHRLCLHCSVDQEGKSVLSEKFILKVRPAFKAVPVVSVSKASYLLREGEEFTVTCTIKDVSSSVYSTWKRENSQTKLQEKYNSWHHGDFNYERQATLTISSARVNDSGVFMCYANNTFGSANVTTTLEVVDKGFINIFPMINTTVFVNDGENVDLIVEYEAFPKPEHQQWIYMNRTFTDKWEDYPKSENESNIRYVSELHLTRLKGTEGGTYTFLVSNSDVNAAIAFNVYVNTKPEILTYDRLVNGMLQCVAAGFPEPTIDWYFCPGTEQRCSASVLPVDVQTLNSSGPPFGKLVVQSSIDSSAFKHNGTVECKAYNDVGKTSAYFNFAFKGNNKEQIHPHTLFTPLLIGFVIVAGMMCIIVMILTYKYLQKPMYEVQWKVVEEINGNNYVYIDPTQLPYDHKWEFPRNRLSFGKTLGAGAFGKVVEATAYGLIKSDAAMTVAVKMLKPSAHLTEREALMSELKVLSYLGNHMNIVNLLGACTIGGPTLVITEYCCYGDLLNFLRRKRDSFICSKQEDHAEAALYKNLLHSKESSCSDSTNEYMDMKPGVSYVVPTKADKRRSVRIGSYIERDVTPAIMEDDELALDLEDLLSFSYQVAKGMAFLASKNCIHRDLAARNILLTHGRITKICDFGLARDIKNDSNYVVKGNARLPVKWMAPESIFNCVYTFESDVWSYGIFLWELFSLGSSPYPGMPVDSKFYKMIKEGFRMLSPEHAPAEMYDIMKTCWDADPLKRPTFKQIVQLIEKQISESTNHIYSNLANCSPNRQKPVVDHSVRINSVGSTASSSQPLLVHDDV
Sequence of p56 Lck (P06239 whole entry): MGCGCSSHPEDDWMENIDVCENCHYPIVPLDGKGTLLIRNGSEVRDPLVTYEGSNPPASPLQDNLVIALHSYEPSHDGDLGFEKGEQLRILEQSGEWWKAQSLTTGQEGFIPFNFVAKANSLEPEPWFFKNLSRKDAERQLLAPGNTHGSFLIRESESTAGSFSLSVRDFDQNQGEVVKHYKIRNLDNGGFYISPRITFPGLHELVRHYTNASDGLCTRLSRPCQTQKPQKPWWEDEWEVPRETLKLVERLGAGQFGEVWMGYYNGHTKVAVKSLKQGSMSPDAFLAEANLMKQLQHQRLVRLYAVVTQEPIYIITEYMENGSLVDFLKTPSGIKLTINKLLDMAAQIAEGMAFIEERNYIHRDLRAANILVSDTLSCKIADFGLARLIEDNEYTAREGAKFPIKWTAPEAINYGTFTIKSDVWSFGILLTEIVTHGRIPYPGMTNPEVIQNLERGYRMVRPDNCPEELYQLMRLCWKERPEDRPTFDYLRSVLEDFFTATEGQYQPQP
Sequence of Abl (P00519 whole entry, species assumed): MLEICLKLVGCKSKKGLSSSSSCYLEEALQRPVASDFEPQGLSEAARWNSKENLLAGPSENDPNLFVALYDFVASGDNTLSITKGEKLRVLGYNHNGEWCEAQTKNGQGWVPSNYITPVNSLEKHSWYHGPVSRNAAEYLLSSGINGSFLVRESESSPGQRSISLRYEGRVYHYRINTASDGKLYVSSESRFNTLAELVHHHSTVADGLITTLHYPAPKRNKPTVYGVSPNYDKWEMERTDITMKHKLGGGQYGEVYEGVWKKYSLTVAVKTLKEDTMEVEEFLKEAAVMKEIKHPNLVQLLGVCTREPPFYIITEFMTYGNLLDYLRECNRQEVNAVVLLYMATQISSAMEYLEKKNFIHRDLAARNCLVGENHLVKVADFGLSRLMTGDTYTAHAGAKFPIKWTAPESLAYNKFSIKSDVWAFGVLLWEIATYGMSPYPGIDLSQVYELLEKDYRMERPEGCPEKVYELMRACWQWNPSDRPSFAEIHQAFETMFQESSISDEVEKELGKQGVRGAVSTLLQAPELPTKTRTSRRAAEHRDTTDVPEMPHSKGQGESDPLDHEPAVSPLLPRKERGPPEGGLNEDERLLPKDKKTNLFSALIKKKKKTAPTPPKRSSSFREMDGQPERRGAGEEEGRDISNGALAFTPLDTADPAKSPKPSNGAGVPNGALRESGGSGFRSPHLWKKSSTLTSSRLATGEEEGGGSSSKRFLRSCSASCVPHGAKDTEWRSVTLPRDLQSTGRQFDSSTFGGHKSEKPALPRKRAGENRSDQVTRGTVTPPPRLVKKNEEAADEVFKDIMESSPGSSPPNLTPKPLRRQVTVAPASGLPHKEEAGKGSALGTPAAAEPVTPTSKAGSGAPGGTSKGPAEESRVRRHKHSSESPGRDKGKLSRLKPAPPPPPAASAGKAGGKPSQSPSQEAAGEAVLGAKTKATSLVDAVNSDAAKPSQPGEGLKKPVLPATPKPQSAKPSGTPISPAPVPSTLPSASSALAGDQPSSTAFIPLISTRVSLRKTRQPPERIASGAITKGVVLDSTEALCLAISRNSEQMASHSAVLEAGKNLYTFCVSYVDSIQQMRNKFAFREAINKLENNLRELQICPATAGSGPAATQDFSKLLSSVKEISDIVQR
Sequence of RSK1 (Q15418 whole entry, species assumed): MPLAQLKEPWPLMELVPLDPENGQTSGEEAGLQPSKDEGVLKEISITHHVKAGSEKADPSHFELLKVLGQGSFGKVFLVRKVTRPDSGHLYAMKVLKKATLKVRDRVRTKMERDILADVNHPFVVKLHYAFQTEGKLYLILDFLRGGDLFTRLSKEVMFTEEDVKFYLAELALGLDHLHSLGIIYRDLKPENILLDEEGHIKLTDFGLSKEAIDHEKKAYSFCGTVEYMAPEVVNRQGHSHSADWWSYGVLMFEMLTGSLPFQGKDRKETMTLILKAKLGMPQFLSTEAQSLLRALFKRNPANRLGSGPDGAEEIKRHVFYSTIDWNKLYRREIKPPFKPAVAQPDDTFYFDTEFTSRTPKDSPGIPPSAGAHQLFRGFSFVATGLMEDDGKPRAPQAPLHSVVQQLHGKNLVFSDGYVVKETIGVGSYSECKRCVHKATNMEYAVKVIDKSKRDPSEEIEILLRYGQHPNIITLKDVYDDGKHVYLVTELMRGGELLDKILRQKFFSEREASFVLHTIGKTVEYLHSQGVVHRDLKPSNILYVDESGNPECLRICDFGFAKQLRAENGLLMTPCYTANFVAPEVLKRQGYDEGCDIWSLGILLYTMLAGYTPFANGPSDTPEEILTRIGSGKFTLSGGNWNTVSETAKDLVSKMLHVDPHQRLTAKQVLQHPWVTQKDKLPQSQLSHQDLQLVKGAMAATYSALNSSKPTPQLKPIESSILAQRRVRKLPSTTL
Sequence of GSK-3β (P49841 whole entry, species assumed): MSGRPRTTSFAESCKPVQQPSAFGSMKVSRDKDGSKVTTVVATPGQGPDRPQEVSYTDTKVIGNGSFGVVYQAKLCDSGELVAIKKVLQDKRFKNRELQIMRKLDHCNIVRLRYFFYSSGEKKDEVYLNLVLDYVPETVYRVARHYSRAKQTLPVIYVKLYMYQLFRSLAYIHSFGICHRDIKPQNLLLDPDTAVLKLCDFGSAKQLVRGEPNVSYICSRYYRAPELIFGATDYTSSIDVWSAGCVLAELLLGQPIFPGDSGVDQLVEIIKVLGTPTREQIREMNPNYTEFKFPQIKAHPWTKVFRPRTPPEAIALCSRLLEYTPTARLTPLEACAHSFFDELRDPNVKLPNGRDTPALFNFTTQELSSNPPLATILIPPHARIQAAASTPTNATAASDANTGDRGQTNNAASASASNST

## COc1ccccc1-c1cc(Nc2ccc(NS(C)(=O)=O)cc2)ncn1 [Compound 33]
c-Kit
  c-Kit (% inhibition): b (inhibition between 80 and 50%: b)
RSK1
  RSK1 (% inhibition): c (inhibition between 50 and 30%: c)
PDGFR
  PDGFR (% inhibition): b (inhibition between 80 and 50%: b)
EGFR
  EGFR (% inhibition): b (inhibition between 80 and 50%: b)
GSK-3β
  GSK-3β (% inhibition): b (inhibition between 80 and 50%: b)
CDK1
  CDK1 (% inhibition): a (inhibition greater than 80%: a)
p56 Lck
  p56 Lck (% inhibition): b (inhibition between 80 and 50%: b)

## COc1ccccc1-c1cc(Nc2ccc(NC(=O)c3cn(C)cn3)cc2)ncn1 [Compound 70]
c-Kit
  c-Kit (% inhibition): b (inhibition between 80 and 50%: b)
RSK1
  RSK1 (% inhibition): b (inhibition between 80 and 50%: b)
PDGFR
  PDGFR (% inhibition): b (inhibition between 80 and 50%: b)
EGFR
  EGFR (% inhibition): b (inhibition between 80 and 50%: b)
GSK-3β
  GSK-3β (% inhibition): b (inhibition between 80 and 50%: b)
CDK1
  CDK1 (% inhibition): a (inhibition greater than 80%: a)
p56 Lck
  p56 Lck (% inhibition): b (inhibition between 80 and 50%: b)
Abl
  Abl (% inhibition): c (inhibition between 50 and 30%: c)

## Cc1ccc(Nc2cc(-c3cccc(N)c3)ncn2)cc1NS(=O)(=O)c1ccccc1 [Compound 109]
PDGFR
  PDGFR (% inhibition): c (inhibition between 50 and 30%: c)
EGFR
  EGFR (% inhibition): b (inhibition between 80 and 50%: b)
GSK-3β
  GSK-3β (% inhibition): a (inhibition greater than 80%: a)
CDK1
  CDK1 (% inhibition): a (inhibition greater than 80%: a)
CDK5/p35
  CDK5 (% inhibition): a (inhibition greater than 80%: a)

## Nc1ccc(C(=O)Nc2ccc(Nc3cc(-c4ccccc4OCc4ccccc4)ncn3)cc2)cc1 [Compound 4]
HCMV strain AD169
  HCMV replication (in words): showed inhibition
EGFR
  EGFR (% inhibition): c (inhibition between 50 and 30%: c)
GSK-3β
  GSK-3β (% inhibition): a (inhibition greater than 80%: a)
CDK1
  CDK1 (% inhibition): a (inhibition greater than 80%: a)
[1]
  inhibition of NFκB (in words, compared with Compound 30): less effectively
[1]; titration
  EC50: ~2 µM
p56 Lck
  p56 Lck (% inhibition): a (inhibition greater than 80%: a)

## COc1ccccc1-c1cc(Nc2ccc(NC(=O)[C@@H](N)c3ccccc3)cc2)ncn1 [Compound 81]
PDGFR
  PDGFR (% inhibition): b (inhibition between 80 and 50%: b)
EGFR
  EGFR (% inhibition): b (inhibition between 80 and 50%: b)
GSK-3β
  GSK-3β (% inhibition): b (inhibition between 80 and 50%: b)
CDK1
  CDK1 (% inhibition): a (inhibition greater than 80%: a)
CDK5/p35
  CDK5 (% inhibition): a (inhibition greater than 80%: a)
Abl
  Abl (% inhibition): b (inhibition between 80 and 50%: b)

## COc1ccccc1-c1cc(Nc2ccc(NC(=O)C3CCCN(C)C3)cc2)ncn1 (centres unmarked) [Compound 87]
c-Kit
  c-Kit (% inhibition): b (inhibition between 80 and 50%: b)
RSK1
  RSK1 (% inhibition): b (inhibition between 80 and 50%: b)
PDGFR
  PDGFR (% inhibition): b (inhibition between 80 and 50%: b)
EGFR
  EGFR (% inhibition): a (inhibition greater than 80%: a)
CDK1
  CDK1 (% inhibition): a (inhibition greater than 80%: a)
cMet
  cMet (% inhibition): c (inhibition between 50 and 30%: c)
p56 Lck
  p56 Lck (% inhibition): b (inhibition between 80 and 50%: b)
Abl
  Abl (% inhibition): b (inhibition between 80 and 50%: b)

## CN1CC[C@H](c2c(O)cc(O)c3c(=O)cc(-c4ccccc4Cl)oc23)[C@H](O)C1 [flavopiridol, reference compound]
HBV
  HBV replication (in words): inhibits replication

## CN[C@H](C(=O)Nc1ccc(Nc2cc(-c3ccccc3OC)ncn2)cc1)c1ccccc1 [Compound 82]
PDGFR
  PDGFR (% inhibition): c (inhibition between 50 and 30%: c)
EGFR
  EGFR (% inhibition): a (inhibition greater than 80%: a)
GSK-3β
  GSK-3β (% inhibition): c (inhibition between 50 and 30%: c)
CDK1
  CDK1 (% inhibition): b (inhibition between 80 and 50%: b)
CDK5/p35
  CDK5 (% inhibition): b (inhibition between 80 and 50%: b)
Abl
  Abl (% inhibition): c (inhibition between 50 and 30%: c)

## CNC(C)(C)C(=O)Nc1ccc(Nc2cc(-c3ccccc3OC)ncn2)cc1 [Compound 118]
PDGFR
  PDGFR (% inhibition): b (inhibition between 80 and 50%: b)
EGFR
  EGFR (% inhibition): a (inhibition greater than 80%: a)
CDK1
  CDK1 (% inhibition): b (inhibition between 80 and 50%: b)
CDK5/p35
  CDK5 (% inhibition): b (inhibition between 80 and 50%: b)
Abl
  Abl (% inhibition): c (inhibition between 50 and 30%: c)

## CN(C)c1ccccc1-c1cc(Nc2ccc(C(=O)N[C@@H]3CCCC[C@H]3N)cc2)ncn1 [Compound 233]
CDK4
  IC50: 1 to 10 µM

## COc1ccccc1-c1cc(Nc2ccc3c(c2)S(=O)(=O)C=C3)ncn1 [Compound 342]
CDK4
  IC50: 10 to 250 µM

## COc1ccc(-c2cc(Nc3ccc(NC(=O)c4ccc(N)cc4)cc3)ncn2)cc1 [Compound 6]
c-Kit
  c-Kit (% inhibition): b (inhibition between 80 and 50%: b)
HCMV strain AD169
  HCMV replication (in words): showed inhibition
PDGFR
  PDGFR (% inhibition): c (inhibition between 50 and 30%: c)
GSK-3β
  GSK-3β (% inhibition): b (inhibition between 80 and 50%: b)
CDK1
  CDK1 (% inhibition): a (inhibition greater than 80%: a)
p56 Lck
  p56 Lck (% inhibition): c (inhibition between 50 and 30%: c)

## N[C@@H]1CCCC[C@H]1NC(=O)c1ccc(Nc2cc(-c3ccccc3O)ncn2)cc1 [Compound 218]
CDK4
  IC50: 1 to 10 µM
